Reference: patent US20020177625A1, “Class of glaucoma drugs to enhance aqueous humor outflow and lower intra-ocular pressure” (The Regents of the University of California, a California …, priority 2001, published 2002)
Entries after “also recorded” stand apart in the source; their conditions may differ.

Columns and labels:
human TM cells [1] = assay: Regulatory volume decrease (RVD) of human TM cells in hypotonic medium (electronic cell sizing); type: cell-based; conditions: hypotonic medium (200 mOsm), agent at 1 mM
Description: (§1) By the second method, TM cells were trypsinized briefly in Ca-free medium, then rinsed with medium containing trypsin inhibitor and suspended in Hepes MEM. Mean cell volumes were then analyzed by electronic cell sizing on a COULTER COUNTER™ radioassay (Model ZM) with channelizer (C256), using at least 50,000 cells per data point and an orifice diameter of 140 μm. Aliquots of suspended cells were diluted into Hepes MEM containing the tonicity and/or agents to be evaluated. Mean cell volumes of each suspension aliquot were followed over time, starting at 1 minute after addition of cells to the assay media. Cell suspensions were maintained at 37° C. throughout the assay period. Absolute volumes (picoliters/cell) were calculated from distribution curves of cell diameter, using a standard curve generated by polystyrene latex beads of known diameter.
In FIG. 7A, cells were exposed to isotonic medium (300 mOsm) or to hypotonic medium (200 mOsm)±1 mM DPC (diphenylamine carboxylate). Cell volume was assessed by COULTER COUNTER™ electronic cell sizing over the time course shown, using TM cells in suspension. […] Data represent means of two experiments, error values shown are SEM, n=4 (two separate RVD runs per experiment).
Data represent means of two experiments, error values shown are SEM, n=4 (two separate RVD runs per experiment).

human TM cells [2] = assay: Whole cell patch clamp ion conductances of human TM cells; type: cell-based; conditions: human TM cells
Description: Further studies conducted with agents known to block Cl and K channels attenuate the swelling-activated regulatory volume decrease in TM cells and niflumic acid reduces both cell volume and intracellular [Cl] of TM cells. In these studies, human TM cells were cultured from donor eyes and used between passages three and eight. Routine whole cell patch clamp methods were used to assess conductances of TM cells in isotonic (290 mOsm) and hypotonic (230 mOsm) media, with or without NPPB, DIDS, TEA or niflumic acid. Conductances were determined from current/voltage plots, generated using a ramp protocol. […] The reversal potential observed in the presence of hypotonic medium was close to the calculated reversal potential for Cl. Switching to an external medium containing reduced Cl shifted the reversal potential toward that calculated for the low Cl medium. Treating the TM cells with the Cl channel blocker NPPB (100 μM) abolished the swelling-activated conductance in a manner reversed by subsequent washout of NPPB. […] Finally, treatment of the cells with the K channel blocker TEA (1 mM) also abolished the niflumic acid-activated TM cell conductance.
Human TM and SC cells grown to subconfluence are gently trypsinized on the day of the experiment and immediately exposed to trypsin-neutralizing solution and then allowed to settle onto standard square (22×22-mm) glass coverslips for 30 minutes before use. Routine patch clamp methods were used as described previously Barakat, A. I., et al., Circulation Research, 85: 820-828, 1999; Hamill, O. P. et al., Pflügers Archives, 391: 85-100, 1981; Mauro, T. et al., J of Invest. Dermatology, 105: 203-208, 1995; Pappone, P. A. et al., J. of Physiology, 306:377-410, 1980; Pappone, P. A. et al., J of Gen. Physiology, 106: 231-258, 1995; Pappone, P. A. et al., Amer. J. of Physiology: Cell Physiology, 264: C1014-C1019, 1993; Wilson, S. M. et al., J. of Gen. Physiology, 113: 125-138, 1999. Using the whole cell patch clamp mode, conductances were assessed for isotonic and hypotonic media. By assessing current/voltage (I/V) relationships and reversal potentials for the TM and SC cells while using specific concentrations of Cl in the pipette and bath media, the nature of the conductances observed can be determined.
Whole cell currents were measured at room temperature in a Warner recording/perfusion chamber (Warner Instrument Corp.) using standard whole-cell patch clamp techniques as described previously, Lucero, M. T. et al., J. of Gen. Physiology, 95:523-544, 1999. Thick-walled borosilicate capillaries (Sutter Instruments, Inc., Novato, Calif.) were used to manufacture pipettes with resistances of 3 to 5 MW. The voltage offset between the patch pipette and the bath solution were nulled immediately before patch formation. An agar bridge containing […] KCl was used to ground the bath solution. Voltages were recorded from a patch-clamp amplifier (AXOPATCH 200A, Axon Instruments). Data was collected on a Macintosh personal computer using Pulse+Pulsefit software (HEKA Elektronik). Whole-cell currents were recorded from single (sub confluent) cells with membrane capacitances nulled through the patch-clamp amplifier. The voltage ramp protocol included a voltage step from the holding potential to +60 mV for 40 ms followed by a ramp to −100 mV over a period of 400 ms followed by a return to the holding potential. During the protocol, voltage ramps were conducted once every 5 seconds for 10 minutes, yielding 120 traces. Conductances were computed by taking the derivative of a least-squares straight line fit to the I-V data plots using Igor Pro Software (Wavemetrics, Inc.). In cases in which the I-V plots are not linear over the entire voltage ramp (as in FIGS. 6AB), computation of the whole-cell conductance were restricted to a linear range, typically 0 to +60 mV. […]

human TM cells [3] = assay: Intracellular volume of human TM cells (14C-urea/14C-sucrose water space or COULTER COUNTER electronic cell sizing), isotonic medium; type: cell-based; conditions: for reduction in intracellular volume: human TM cells, 10 μM bumetamide, isotonic conditions; for TM cell volume: hormones and intracellular regulators acting on the co-transporter
Description: The intracellular volume of human and bovine TM cells was evaluated by two methods: 1) radioisotopic evaluation of TM monolayer intracellular water space using ^14C-urea and ^14C-sucrose as markers of total and extracellular space, respectively; and 2) electronic cell sizing of suspended TM cells, using a COULTER COUNTER™ assay (Coulter Electronics, Ltd., Hialeah, Fla.). Details of these methods have been described previously by O'Donnell (O'Donnell, M. E., supra, 1993) the entirety of which is incorporated herein by reference.
By the first method, cell monolayers were preequilibrated for 30 minutes in Hepes MEM at 37° C. in an air atmosphere, then incubated for 20 minutes in Hepes MEM containing 0 or 10 μM bumetamide, ethacrynic acid, or other agents to be tested, and finally incubated for 10 minutes in the same medium containing either ^14C-urea or ^14C-sucrose (both at 1 μCi/ml). Monolayers were then rinsed with isotonic ice-cold MgCl2 and radioactivity of SDS extracts determined by liquid scintillation. Specific activities (counts per minute/ml) of ^14C-urea and ^14C-sucrose in the assay medium were determined and used to calculate water space associated with trapped radioactivity (expressed as μl/mg protein. Intracellular volume was calculated as the difference between the water space determined for ^14C-urea (a marker for intracellular plus trapped extracellular space) and ^14C-sucrose (a marker for trapped extracellular space).
as §1
Human TM cells were exposed to isotonic medium ±niflumic acid (10 or 100 μM)±10 μM bumetamide. Cell volume was assessed by COULTER COUNTER™ electronic cell sizing over the time course shown, using TM cells in suspension. Note that niflumic acid (NA) alone decreases volume of the TM cells and that exposing the cells to NA plus bumetamide causes a further decrease in TM cell volume. Data represent means of two experiments (all conditions shown tested in both experiments).

[4] = system: perfused human anterior chambers; assay: Outflow facility of perfused human anterior chambers; conditions: perfused with bumetamide
Source text: The effect is expected to be transient because after the initial cell shrinkage, the co-transporter is activated to restore volume in the TM cells and, thus, the cell shrinkage is only transient. […] Here again, the cells rapidly respond to altered volume, in this case by activating ion efflux pathways to decrease volume of the cells to normal.

Na—K—Cl co-transporter = biological target: T1, Na—K—Cl co-transporter (Homo sapiens, UniProt P55011); assay: Na—K—Cl co-transport measured as bumetamide-sensitive K influx (86Rb tracer) in human TM cell monolayers; type: cell-based
T1 construct: endogenous in cells; host or cells: cultured human trabecular meshwork (TM) cells, normal or glaucomatous donors
T1 sequence (P55011 1-1212): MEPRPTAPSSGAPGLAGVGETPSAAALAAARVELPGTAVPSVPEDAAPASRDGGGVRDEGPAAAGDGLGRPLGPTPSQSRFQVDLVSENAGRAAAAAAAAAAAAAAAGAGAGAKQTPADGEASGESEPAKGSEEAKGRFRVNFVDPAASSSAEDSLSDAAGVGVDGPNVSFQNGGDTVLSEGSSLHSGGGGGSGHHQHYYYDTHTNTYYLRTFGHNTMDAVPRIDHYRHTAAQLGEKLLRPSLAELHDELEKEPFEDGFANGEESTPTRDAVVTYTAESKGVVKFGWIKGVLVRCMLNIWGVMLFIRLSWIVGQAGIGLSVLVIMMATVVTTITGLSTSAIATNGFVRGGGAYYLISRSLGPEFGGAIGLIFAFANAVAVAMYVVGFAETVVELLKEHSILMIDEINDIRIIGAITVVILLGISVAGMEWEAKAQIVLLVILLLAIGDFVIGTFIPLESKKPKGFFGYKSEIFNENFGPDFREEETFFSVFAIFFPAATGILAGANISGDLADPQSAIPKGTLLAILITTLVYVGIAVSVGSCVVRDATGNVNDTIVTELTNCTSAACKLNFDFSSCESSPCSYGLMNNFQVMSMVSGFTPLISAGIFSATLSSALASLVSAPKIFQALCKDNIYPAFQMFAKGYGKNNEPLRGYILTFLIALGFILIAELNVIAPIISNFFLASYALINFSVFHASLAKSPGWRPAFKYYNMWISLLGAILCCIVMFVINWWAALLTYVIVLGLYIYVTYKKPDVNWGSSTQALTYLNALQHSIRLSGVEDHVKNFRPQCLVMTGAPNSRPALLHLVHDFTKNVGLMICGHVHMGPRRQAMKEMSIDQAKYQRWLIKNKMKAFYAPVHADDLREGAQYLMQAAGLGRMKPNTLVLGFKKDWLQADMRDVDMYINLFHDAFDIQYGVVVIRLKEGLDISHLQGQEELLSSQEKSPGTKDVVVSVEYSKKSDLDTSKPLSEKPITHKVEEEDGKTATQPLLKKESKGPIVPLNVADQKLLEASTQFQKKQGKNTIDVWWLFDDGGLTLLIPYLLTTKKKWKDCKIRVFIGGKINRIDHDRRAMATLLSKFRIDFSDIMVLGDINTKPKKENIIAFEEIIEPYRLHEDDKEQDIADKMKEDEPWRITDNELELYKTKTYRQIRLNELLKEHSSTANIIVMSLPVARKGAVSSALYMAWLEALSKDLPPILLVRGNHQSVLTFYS
Description: Na—K—Cl co-transport was measured as ouabain-insensitive, bumetamide-sensitive potassium influx, using ^86Rb as a tracer for potassium. […] The assay medium also contained ^86Rb (1 μCi/ml) (Dupont New England Nuclear, Boston, Mass.). The assay was terminated by rinsing the wells with ice-cold isotonic MgCl2, then extracting the contents with 0.2% sodium dodecyl sulfate (SDS), and determining the amount of radioactive contents by liquid scintillation. Osmolarities of all preincubation and assay media were verified by osmometry (Model 3W2, Advanced Instruments, Norwood, Mass.).
The cells were pretreated with Hepes-buffered minimal essential medium (MEM) ±10 μM bumetamide ±1 mM ouabain for 5 min, then assayed for 5 min in the same media plus ^86Rb. […] Data are means ±SEM, n=12.
Na—K—Cl co-transport activity of glaucomatous human TM cells was assessed as ouabain-insensitive, bumetamide-sensitive K influx, using ^86Rb as a tracer for K, as described previously. TM cells were preincubated for 5 minutes in a Hepes-buffered MEM containing 0 or 10 μM bumetamide in the presence of 1 mM ouabain, followed by a 5 minute assay in media of identical composition except that they also contained ^86Rb. […] Data are mean values ±SEM in seven normal TM cultures (donor age range, 38-68 years, n=12 in each cell culture) and in seven glaucomatous cultures (donor age range 41-75 years, n=7 in each cell culture).
Human TM cells were equilibrated in Hepes-buffered MEM for 30 minutes and then pretreated for 5 minutes in media containing 1 mM ouabain, 10 or 0 μM bumetamide, and 0.3 μM to 1 mM niflumic acid (NA). Cells were then assayed for bumetamide-sensitive K influx for 5 minutes in media identical to the pretreatment media but also containing ^86Rb (1 μCi/ml). […] Dashed line indicates control level of Na—K—Cl co-transport. Data are means ±SEM of at least 4 determinations from 3 experiments.

## O=S(=O)(O)c1cc(N=C=S)ccc1C=Cc1ccc(N=C=S)cc1S(=O)(=O)O [DIDS, 4,4′-diisothiocyanostilbene-2,2′-disulfonic acid]
Human TM cells [1]
  regulatory volume decrease (RVD): attenuated; also recorded: reduced
Human TM cells [2]; DIDS 1 mM
  swelling-activated (hypotonic medium-induced) ion conductance: does not increase; also recorded: abolished; also recorded: blocked

## CCCCNc1cc(C(=O)O)cc(S(N)(=O)=O)c1Oc1ccccc1 [bumetamide]
Human TM cells [3]; 30 minute exposure
  reduction in intracellular volume: 12±4%
Human TM cells [3]; 60 minute exposure
  reduction in intracellular volume: 25±6%
Human TM cells [3]; normal and glaucomatous human TM cells exposed to bumetamide
  cell volume of normal and glaucomatous TM cells: decreased
[4]
  outflow facility: sustained elevation
Na—K—Cl co-transporter; human TM cells, 10 μM bumetamide, 86Rb tracer
  total K influx in TM cells: blocks a substantial portion

## NC[C@H](O)c1ccc(O)c(O)c1 [norepinephrine]
Human TM cells [3]
  TM cell volume: reduce

## CC[N+](CC)(CC)CC [TEA, tetraethylammonium]
Human TM cells [1]
  regulatory volume decrease (RVD): diminished
Human TM cells [2]; niflumic acid 100 μM plus K channel blocker TEA 1 mM
  niflumic acid-activated TM cell conductance: abolished

## O=C(O)c1ccccc1Nc1ccccc1 [DPC, diphenylamine carboxylate]
Human TM cells [1]
  regulatory volume decrease (RVD): attenuated

## O=C(O)c1cc([N+](=O)[O-])ccc1NCCCc1ccccc1 [NPPB]
Human TM cells [2]; NPPB 100 μM
  swelling-activated (hypotonic medium-induced) ion conductance: blocked; also recorded: abolished

## NS(=O)(=O)c1cc(C(=O)O)c(NCc2ccco2)cc1Cl [furosemide]
Human TM cells [1]
  regulatory volume decrease (RVD): no effect

## Nc1ncnc2c1ncn2[C@@H]1O[C@@H]2COP(=O)(O)O[C@H]2[C@H]1O [cyclic AMP]
Human TM cells [3]
  TM cell volume: reduce
Na—K—Cl co-transporter; glaucomatous human TM cells
  inhibition of Na—K—Cl co-transporter of glaucomatous TM cells: insensitive
